Data on 19 compounds can be found in the NIST ThermoML archive (doi:10.1021/acs.jced.8b01189).

The conditions of series [1]: 298.15 K; 100 kPa; Liquid; Vibrating tube method.
The nature of series [2]: xn = mol fraction of the nth substance listed. As to conditions: 298.15 K, 100 kPa, Liquid, Vibrating tube method.

± gives the expanded uncertainty stated by the source.

One may read the mass density as mass per unit of volume. Regarding `CCCCCCCCCCO` [decan-1-ol], the mass density in series [1] is 826.1 ± 1 kg/m3.
With `CCCCCCCCCCO` [decan-1-ol] + CCCCC(=O)O, the mass density in series [2] (x2 = 0) was found to be 826.1 ± 1 kg/m3.
Take `CCCCCCCO` [heptan-1-ol]: the mass density in series [1] was 818.7 ± 1 kg/m3.
Regarding `CCCCCCCO` [heptan-1-ol] + CCCCC(=O)O, the mass density in series [2] (x2 = 0) was determined as 818.7 ± 1 kg/m3.
As to `CCCCCCO` [hexan-1-ol], in series [1], the mass density is 815.1 ± 1 kg/m3.
With `CCCCCCO` [hexan-1-ol] + CCCCC(=O)O, in series [2] (x2 = 0), the mass density is 815.1 ± 1 kg/m3.
With `CCCCCCCCCO` [nonan-1-ol], the mass density in series [1] worked out at 824 ± 1 kg/m3.
Regarding `CCCCCCCCCO` [nonan-1-ol] + CCCCC(=O)O, the mass density in series [2] (x2 = 0) is reported as 824 ± 1 kg/m3.
With `CCCCCCCCO` [octan-1-ol], in series [1], the mass density was found to be 821.4 ± 1 kg/m3.
`CCCCCCCCO` [octan-1-ol] + CCCCC(=O)O: the mass density in series [2] (x2 = 0) stood at 821.4 ± 1 kg/m3.
For the compound `CCCCCO` [pentan-1-ol], the mass density in series [1] was found to be 810.8 ± 1 kg/m3.
With `CCCCCO` [pentan-1-ol] + CCCCC(=O)O, the mass density in series [2] (x2 = 0) was found to be 810.8 ± 1 kg/m3.
With `CCCCC(=O)O` [pentanoic acid], the mass density in series [1] turned out to be 935.1 ± 1 kg/m3.
On to `CCCCC(=O)O` [pentanoic acid] + CCCCCCCCCCO, for which the mass density in series [2] (x1 = 0.0809) was 831.4 ± 1 kg/m3; in series [2] (x1 = 0.1598) it was 837 ± 1 kg/m3; in series [2] (x1 = 0.2406) it was 843 ± 1 kg/m3; in series [2] (x1 = 0.3493), 852 ± 1 kg/m3; in series [2] (x1 = 0.4405), 860.2 ± 1 kg/m3; in series [2] (x1 = 0.5601), 872.3 ± 1 kg/m3. In addition, the mass density came to 882.5 ± 1 kg/m3 in series [2] (x1 = 0.6502); 893.9 ± 1 kg/m3 in series [2] (x1 = 0.7406); 909.6 ± 1.1 kg/m3 in series [2] (x1 = 0.8504); 924.2 ± 1.1 kg/m3 in series [2] (x1 = 0.9411); 935.1 ± 1 kg/m3 in series [2] (x1 = 1).
In the case of `CCCCC(=O)O` [pentanoic acid] + CCCCCCCCCO, the mass density in series [2] (x1 = 0.0802) came to 830 ± 1 kg/m3; in series [2] (x1 = 0.1604) it was 836.1 ± 1 kg/m3; in series [2] (x1 = 0.2394) it was 842.8 ± 1 kg/m3; in series [2] (x1 = 0.3496), 852.5 ± 1 kg/m3; in series [2] (x1 = 0.4397) it was 861.2 ± 1 kg/m3; in series [2] (x1 = 0.5605) it was 873.9 ± 1 kg/m3. Moreover, the mass density in series [2] (x1 = 0.6497) is on record as 884.3 ± 1 kg/m3; in series [2] (x1 = 0.7401), 895.6 ± 1 kg/m3; in series [2] (x1 = 0.8502), 911 ± 1 kg/m3; in series [2] (x1 = 0.9403) it was 925 ± 1.1 kg/m3; in series [2] (x1 = 1), 935.1 ± 1 kg/m3.
For the compound `CCCCC(=O)O` [pentanoic acid] + CCCCCCCCO, the mass density in series [2] (x1 = 0.0809) is 828.2 ± 1 kg/m3; in series [2] (x1 = 0.1604) it was 835.1 ± 1 kg/m3; in series [2] (x1 = 0.2392), 842.4 ± 1 kg/m3; in series [2] (x1 = 0.3496), 853 ± 1 kg/m3; in series [2] (x1 = 0.4399), 862.3 ± 1 kg/m3; in series [2] (x1 = 0.5605) it was 875.5 ± 1 kg/m3. For the same compound, the mass density in series [2] (x1 = 0.6497) is given as 886.1 ± 1 kg/m3; in series [2] (x1 = 0.7401) it was 897.4 ± 1 kg/m3; in series [2] (x1 = 0.8504) it was 912.4 ± 1 kg/m3; in series [2] (x1 = 0.9403), 925.7 ± 1.1 kg/m3; in series [2] (x1 = 1), 935.1 ± 1 kg/m3.
As for `CCCCC(=O)O` [pentanoic acid] + CCCCCCCO, the mass density came out at 826.5 ± 1 kg/m3 in series [2] (x1 = 0.0812); 834.3 ± 1 kg/m3 in series [2] (x1 = 0.1601); 842.5 ± 1 kg/m3 in series [2] (x1 = 0.24); 854.2 ± 1 kg/m3 in series [2] (x1 = 0.3506); 864 ± 1 kg/m3 in series [2] (x1 = 0.4398); 877.8 ± 1 kg/m3 in series [2] (x1 = 0.5605). For the same compound, the mass density is given as 888.5 ± 1 kg/m3 in series [2] (x1 = 0.6496); 899.7 ± 1 kg/m3 in series [2] (x1 = 0.7405); 914.1 ± 1 kg/m3 in series [2] (x1 = 0.8501); 926.5 ± 1 kg/m3 in series [2] (x1 = 0.9405); 935.1 ± 1 kg/m3 in series [2] (x1 = 1).
As to `CCCCC(=O)O` [pentanoic acid] + CCCCCCO, the mass density in series [2] (x1 = 0.0924) was determined as 825.4 ± 1 kg/m3; in series [2] (x1 = 0.1783), 835.2 ± 1 kg/m3; in series [2] (x1 = 0.264), 845.1 ± 1 kg/m3; in series [2] (x1 = 0.3796) it was 858.6 ± 1 kg/m3; in series [2] (x1 = 0.4718), 869.5 ± 1 kg/m3; in series [2] (x1 = 0.5914) it was 883.9 ± 1 kg/m3. Also, the mass density in series [2] (x1 = 0.6785) worked out at 894.5 ± 1 kg/m3; in series [2] (x1 = 0.7639) it was 905 ± 1 kg/m3; in series [2] (x1 = 0.8656) it was 917.8 ± 1 kg/m3; in series [2] (x1 = 0.9468) it was 928.2 ± 1 kg/m3; in series [2] (x1 = 1), 935.1 ± 1 kg/m3.
Turning to `CCCCC(=O)O` [pentanoic acid] + CCCCCO, the mass density in series [2] (x1 = 0.0807) was determined as 821.4 ± 1 kg/m3; in series [2] (x1 = 0.1596) it was 831.9 ± 1 kg/m3; in series [2] (x1 = 0.2398), 842.4 ± 1 kg/m3; in series [2] (x1 = 0.3501), 856.7 ± 1 kg/m3; in series [2] (x1 = 0.4401) it was 868.2 ± 1 kg/m3; in series [2] (x1 = 0.5604), 883.1 ± 1 kg/m3. Moreover, the mass density in series [2] (x1 = 0.6498) was determined as 894 ± 1 kg/m3; in series [2] (x1 = 0.7399), 904.7 ± 1 kg/m3; in series [2] (x1 = 0.8498), 917.6 ± 1 kg/m3; in series [2] (x1 = 0.9396), 928.1 ± 1 kg/m3; in series [2] (x1 = 1) it was 935.1 ± 1 kg/m3.
